Consider ten compounds from patent US6967096B2, “Thermostable peptidase” (California Institute of Technology, priority 1998, dated 2005).

For experiment [1], the target named is T1, PfuCP (Pyrococcus furiosus, UniProt Q8U3L0).
T1 construct: Pure PfuCP fractions (1391 U.mg^1; 11 mg), as determined by SDS-PAGE, were pooled and stored at −80° C; endogenous in cells; host or cells: Pyrococcus furiosus cell paste; enzyme purified in house by column chromatography
T1 sequence (Q8U3L0 1-499): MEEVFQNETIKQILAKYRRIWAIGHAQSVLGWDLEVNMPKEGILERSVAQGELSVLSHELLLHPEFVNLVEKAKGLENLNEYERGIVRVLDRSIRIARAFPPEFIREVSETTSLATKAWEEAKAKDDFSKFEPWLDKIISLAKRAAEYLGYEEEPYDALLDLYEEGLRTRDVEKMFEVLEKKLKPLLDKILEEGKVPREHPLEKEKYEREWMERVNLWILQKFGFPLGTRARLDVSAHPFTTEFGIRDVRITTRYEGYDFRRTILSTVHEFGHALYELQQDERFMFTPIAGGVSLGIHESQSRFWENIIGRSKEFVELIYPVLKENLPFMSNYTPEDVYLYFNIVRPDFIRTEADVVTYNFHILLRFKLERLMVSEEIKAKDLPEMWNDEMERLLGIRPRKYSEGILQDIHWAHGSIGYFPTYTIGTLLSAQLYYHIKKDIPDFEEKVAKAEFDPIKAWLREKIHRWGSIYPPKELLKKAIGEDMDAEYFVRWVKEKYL
The experiment is classed as biochemical. As for the experimental part: (§1) Assay of Enzyme Activity: Unless stated otherwise, enzymatic activity was assayed using 4 μl of enzyme sample in a total volume of 100 μl of 0.1 M KMES buffer (pH 6.5), starting with 2 mM ZAR in the presence of 0.4 mM CoCl2. Polypropylene microcentrifuge tubes were used. The enzyme and substrate were mixed quickly at room temperature and then brought to 80° C.; the equilibration time for the reaction mixture to reach 80° C. was considered negligible relative to the time scale of the assay. The reaction mixture was incubated at 80° C. in a water bath (Neslab EX-200 DD) for 10 minutes followed by quenching on ice. Subsequently, 750 μl of cadmium-ninhydrin reagent (21) was added and the samples were incubated for an additional 5 min at 80° C. for color development followed by quenching on ice. The absorbance was read at 500 nm (HP 8452A diode array spectrophotometer) with an unheated assay mixture containing Cd-ninhydrin reagent serving as the blank. Absorbances were compared with an arginine standard curve in order to calculate specific activities. Stock solutions of ZAR and CoCl2 were prepared in 0.1 M KMES buffer (pH 6.5), and when necessary, dilution of enzyme samples was done in 50 mM Tris-Cl buffer (pH 8.0). All pH adjustments were performed at room temperature. The free amine of the liberated arginine reacts with ninhydrin to yield the chromophore, Ruheman's purple (absorbance at 500 nm).

In experiment [2] the test system is carboxypeptidase activity in crude extract. In words: Effect of DTT and EDTA on carboxypeptidase activity in crude extract. The note with it: preliminary studies. It is filed as biochemical, Pyrococcus furiosus.
The target in experiment [3] is T1, PfuCP. Briefly: Re-activation by metal ions: divalent metal ion dependence of PfuCP activity. It is filed as biochemical. The note with it: at 80° C.; linear reciprocal plot; read-out: binding constant (Kd) for Co^2+. The protocol:
as §1, with “All pH adjustments were performed at room temperature.” left out, “nm). […]” for “nm).”

The target in experiment [4] is T1, PfuCP. In words: Hydrolysis of synthetic substrates by PfuCP. The note with it: for hydrolysis by PfuCP: initial studies and control experiment; for hydrolysis by PfuCP at longer digestion time: digestion time 30 minutes, not detected under standard conditions. It is filed as biochemical. The protocol: as §1
One unit of activity is defined as the amount of enzyme required to generate one μmole of arginine from ZAR in one minute at 80° C. Activity assays for other ZAX amino acid substrates (X=A, D, E, F, G, H, I, K, L, M, N, P, R, S, V, W, Y) were performed under otherwise identical assay conditions; appropriate amino acids were used to prepare standard curves. Spontaneous hydrolysis of the synthetic substrates was not observed at these temperatures. Protein concentrations were quantified by the Bradford assay using bovine serum albumin as the standard.

“Also recorded” adds a separate entry of the source. Read-outs that look alike come from different tables or passages of the source. Peptide text beside a SMILES is read from it. * marks the point of attachment. Cbz = O=C(OCc1ccccc1)*; Bz = O=C(c1ccccc1)*

Regarding `O[C@H](CS)[C@H](O)CS` (racemic) [DTT, dithiothreitol], the reversibility of inhibition entry at PfuCP [1] was “fully reversible”. For the same compound, the “effect on PfuCP activity” value at PfuCP [1] (2 mM) is reported as “not observed”. The “effect on carboxypeptidase activity in crude extract” value in experiment [2] is given as “completely abolished”.
`[Co+2]` [Co^2+]: at PfuCP [3], the Kd was 13 ± 3 µM.
Consider `O=C(O)CN(CCN(CC(=O)O)CC(=O)O)CC(=O)O` [EDTA, ethylenediaminetetraacetic acid], for which, on PfuCP [1], the “effect on PfuCP activity” value is “not observed” and the reversibility of inhibition entry is “fully reversible”. Besides, the “effect on carboxypeptidase activity in crude extract” value in experiment [2] is “completely abolished”.
On to `O=S(=O)(F)Cc1ccccc1` [PMSF, Phenymethylsulfonyl fluoride], for which, on PfuCP [1] (1 mM), the “effect on PfuCP activity” value is given as “no effect”. The “effect on the enzymatic activity of the polypeptide” value at PfuCP [1] (concentration not given) is “no effect”.
Take `C[C@H](NC(=O)OCc1ccccc1)C(=O)O` [ZA, N-Cbz-Ala]: the “hydrolysis by PfuCP” value on PfuCP [4] is “no hydrolysis”.
Turning to `CC(NC(=O)OCc1ccccc1)C(=O)NC(Cc1cnc[nH]1)C(=O)O` (stereo not drawn) [ZAH], at PfuCP [4], the “hydrolysis by PfuCP at longer digestion time” value was “hydrolyzed; also recorded: observed”.
For `C[C@H](NC(=O)OCc1ccccc1)C(=O)N[C@@H](CC(N)=O)C(=O)O` [ZAN] (Cbz-Ala-Asn-OH), on PfuCP [4], the “hydrolysis by PfuCP at longer digestion time” value was “hydrolyzed; also recorded: observed”.
The same measure, in the same setting: as for `CC(NC(=O)OCc1ccccc1)C(=O)NC(CO)C(=O)O` (stereo not drawn) [ZAS], the entry is “hydrolyzed; also recorded: observed”.
In the case of `O=C(O)CNC(=O)c1ccccc1` [hippuric acid, Bz-Gly], the “hydrolysis by PfuCP” value at PfuCP [4] was “activity”.
Turning to `NC(N)=NCCC[C@H](NC(=O)CNC(=O)c1ccccc1)C(=O)O` [hippuryl-arginine, N-Benzoyl-Gly-Arg] (Bz-Gly-Arg-OH), at PfuCP [4], the “hydrolysis by PfuCP” value was “active”.

One may read the Kd as the equilibrium constant for the complex coming apart.
